Laboratory results from PubChem BioAssay AID2060500 (Molecular Pharmacology Branch, DTP, NCI, 2025).
pIC50: −log10 of the molar value.

System: 596521-263-R-J1-PDC complex spheroids, viability % of control
Test: Anticancer human tumor 596521-263-R-J1-PDC patient-derived soft tissue sarcoma cell line growth inhibition [GQUAD]
Details: for pIC50: curve of first compound; for viability, T/C: stronger effect = lower value
Description: DNA G-quadruplex Stabilizer Agents in Combinations in Complex Spheroids
A high-throughput screen of multi-cell type tumor spheroids was designed to identify active combinations of DNA G-quadruplex stabilizer agents and targeted small molecules. Complex spheroids include a stromal component modeled by human endothelial cells (HUVEC) and fibroblasts modeled by human mesenchymal stem cells (MSCs). The concentration ranges selected for each drug and investigational agent were based upon clinically achievable concentrations if the clinical Cmax of the agent was known.
Compounds. The drugs and investigational agents: pidnarulex (CX-5461; NSC782164), APTO-253 (NSC789042), BRACO-19 (NSC847499), peposertib (NSC802822), ceralasertib (NSC780249), elimusertib (NSC800525), camonsertib (NSC841442), AZD-1390 (NSC803789), olaparib (NSC753686), talazoparib (NSC767125), ART-558 (NSC835418), sotorasib (NSC818433), MRTX-1133 (NSC836407), SN-38 (NSC673596), topotecan (NSC609699), etoposide (NSC141540), doxorubicin (NSC123127), gemcitabine (NSC613327), 5-fluorouracil (NSC19893), paclitaxel (NSC125973), vemurafenib (NSC761431), panobinostat (NSC761190), R-306465 (JNJ-16241199; NSC773264), adavosertib (NSC754352), TP-3654 (NSC805149), carboplatin (NSC241240), KSQ-4279 (NSC840948), and staurosporine (NSC755774) were obtained from the National Cancer Institute (NCI) Developmental Therapeutics Program Chemical Repository (34). The FDA-approved anticancer drug set is available from the NCI Developmental Therapeutics Program. […] The stock solutions were prepared in dimethyl sulfoxide (DMSO, Sigma-Aldrich, St. Louis, MO, cat. D2650) at 800-fold the tested concentration and stored at -70 degrees C prior to their use. All drugs and investigational agents were tested over a range starting from a high concentration at or near the clinical Cmax and decreasing in half-log increments. If the clinical Cmax for an agent had not been determined, the highest concentration tested was 10 microM.
2.3 Cell Culture. All cells were maintained in an incubator at 37 degrees C and 5% CO2 with 95% humidity. The PDC lines were cultured according to standard operating procedures established by the NCI PDMR. All PDCs were thawed and cultured in Matrigel-coated flasks prepared with a working solution of 1X Ham's F-12 nutrient mix, without supplementation (Invitrogen, cat. 11765054), 100 U/mL penicillin-streptomycin (Invitrogen, cat. 15140122), and 2.5% Matrigel (Corning Inc., cat. 354248) for the first three passages. The 857933-349-R-J2-PDC line was cultured in 6C/Colon 1B media, which includes advanced DMEM/F-12 (Thermo Fisher Scientific, cat. 12634028), 10 mM HEPES (Thermo Fisher Scientific, cat. 15630080), 1X GlutaMAX supplement (Thermo Fisher Scientific, cat. 35050061), 0.1 mg/mL primocin (InvivoGen, cat. ant-pm-2), 10% defined fetal bovine serum, heat inactivated (HyClone Laboratories Inc., cat. SH30070.03HI), 50% L-WRN conditioned media (ATCC, cat. CRL-3276), 1.25 mM N-Acetyl-L-cysteine (Sigma-Aldrich, cat. A9165), 10 mM nicotinamide (Sigma-Aldrich, cat. N0636), 1X B-27 supplement (Thermo Fisher Scientific, cat. 17504044), 1X N-2 supplement (Thermo Fisher Scientific, cat. 17502048), 10 microM Y-27632 dihydrochloride (Tocris Bioscience, cat. 1254), and 50 ng/mL human EGF recombinant protein (Thermo Fisher Scientific, cat. PHG0311). The 485176-168-R4-J1-PDC line was cultured in Panc media, which includes all 6C/Colon 1B media components plus 100 ng/mL human FGF-10 (Thermo Fisher Scientific, cat. 100-26), 500 nM SB-431542 (Selleckchem, cat. S1067), and gastrin (Tocris, cat. 3006).
[…]

[1] = second compound 0.0316 µM, first compound 0.0316 µM
[2] = second compound 0.0316 µM, first compound 0.1 µM
[3] = second compound 0.0316 µM, first compound 0.316 µM
[4] = second compound 0.0316 µM, first compound 1 µM
[5] = second compound 0.0316 µM, first compound 3.16 µM
[6] = second compound 0.0316 µM, first compound 10 µM
[7] = second compound 0.1 µM, first compound 0.0316 µM
[8] = second compound 0.1 µM, first compound 0.1 µM
[9] = second compound 0.1 µM, first compound 0.316 µM
[10] = second compound 0.1 µM, first compound 1 µM
[11] = second compound 0.1 µM, first compound 3.16 µM
[12] = second compound 0.1 µM, first compound 10 µM
[13] = second compound 0.316 µM, first compound 0.0316 µM
[14] = second compound 0.316 µM, first compound 0.1 µM
[15] = second compound 0.316 µM, first compound 0.316 µM
[16] = second compound 0.316 µM, first compound 1 µM
[17] = second compound 0.316 µM, first compound 3.16 µM
[18] = second compound 0.316 µM, first compound 10 µM
[19] = second compound 1 µM, first compound 0.0316 µM
[20] = second compound 1 µM, first compound 0.1 µM
[21] = second compound 1 µM, first compound 0.316 µM
[22] = second compound 1 µM, first compound 1 µM
[23] = second compound 1 µM, first compound 3.16 µM
[24] = second compound 1 µM, first compound 10 µM
[25] = second compound 3.16 µM, first compound 0.0316 µM
[26] = second compound 3.16 µM, first compound 0.1 µM
[27] = second compound 3.16 µM, first compound 0.316 µM
[28] = second compound 3.16 µM, first compound 1 µM
[29] = second compound 3.16 µM, first compound 3.16 µM
[30] = second compound 3.16 µM, first compound 10 µM
[31] = second compound 10 µM, first compound 0.0316 µM
[32] = second compound 10 µM, first compound 0.1 µM
[33] = second compound 10 µM, first compound 0.316 µM
[34] = second compound 10 µM, first compound 1 µM
[35] = second compound 10 µM, first compound 3.16 µM
[36] = second compound 10 µM, first compound 10 µM
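Also: spheroids exposed to drugs for 7 days before viability reading.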

`COc1cc(C2c3cc4c(cc3C(OC3OC5COC(C)OC5C(O)C3O)C3COC(=O)C23)OCO4)cc(OC)c1O` (centres undefined) + Cc1[nH]c2ccc(F)cc2c1-c1nc2c3cccnc3c3ncccc3c2[nH]1 showed a pIC50 (second compound 0.0316 µM) of 5.27, a pIC50 (second compound 0.1 µM) of less than 5.00 and a pIC50 (second compound 0.316 µM) of less than 5.00. For the same compound, the pIC50 (second compound 1 µM) was 5.27, the pIC50 (second compound 3.16 µM) was 5.08 and the pIC50 (second compound 10 µM) was 6.01. The viability, T/C [1] was 107%, the viability, T/C [2] was 78.9% and the viability, T/C [3] was 78.4%. The viability, T/C [4] was 66.8%, the viability, T/C [5] was 51.6% and the viability, T/C [6] was 45.8%. For the same compound, the viability, T/C [7] was 93%, the viability, T/C [8] was 86.8% and the viability, T/C [9] was 79.3%. It also gave a viability, T/C [10] of 66.3%, a viability, T/C [11] of 58.3% and a viability, T/C [12] of 53.3%. For the same compound, the viability, T/C [13] was 93.4%, the viability, T/C [14] was 104% and the viability, T/C [15] was 87.3%. The viability, T/C [16] was 54.1%, the viability, T/C [17] was 57.9% and the viability, T/C [18] was 50.3%. The viability, T/C [19] was 102%, the viability, T/C [20] was 85.2% and the viability, T/C [21] was 79.5%. For the same compound, the viability, T/C [22] was 60.9%, the viability, T/C [23] was 55.7% and the viability, T/C [24] was 44.8%. The viability, T/C [25] was 92.8%, the viability, T/C [26] was 82% and the viability, T/C [27] was 79.3%. The viability, T/C [28] was 60.3%, the viability, T/C [29] was 63.6% and the viability, T/C [30] was 46.4%. For the same compound, the viability, T/C [31] was 67.4%, the viability, T/C [32] was 64.3% and the viability, T/C [33] was 65%. For the same compound, the viability, T/C [34] was 49.2%, the viability, T/C [35] was 43.9% and the viability, T/C [36] was 39.5%.

`O=C(c1cc(Cc2n[nH]c(=O)c3ccccc23)ccc1F)N1CCN(C(=O)C2CC2)CC1` + Cc1[nH]c2ccc(F)cc2c1-c1nc2c3cccnc3c3ncccc3c2[nH]1 gave a pIC50 (second compound 0.0316 µM) of less than 5.00, a pIC50 (second compound 0.1 µM) of less than 5.00 and a pIC50 (second compound 0.316 µM) of less than 5.00. For the same compound, the pIC50 (second compound 1 µM) was less than 5.00, the pIC50 (second compound 3.16 µM) was less than 5.00 and the pIC50 (second compound 10 µM) was less than 5.00. It also gave a viability, T/C [1] of 97.8%, a viability, T/C [2] of 97.8% and a viability, T/C [3] of 98.6%. It also gave a viability, T/C [4] of 85.8%, a viability, T/C [5] of 89.8% and a viability, T/C [6] of 69.8%. It also gave a viability, T/C [7] of 91.6%, a viability, T/C [8] of 83.3% and a viability, T/C [9] of 88.3%. It also gave a viability, T/C [10] of 94.7%, a viability, T/C [11] of 76.8% and a viability, T/C [12] of 66.2%. For the same compound, the viability, T/C [13] was 95%, the viability, T/C [14] was 105% and the viability, T/C [15] was 91.8%. It also gave a viability, T/C [16] of 104%, a viability, T/C [17] of 78.5% and a viability, T/C [18] of 66.3%. The viability, T/C [19] was 104%, the viability, T/C [20] was 87.9% and the viability, T/C [21] was 94.7%. For the same compound, the viability, T/C [22] was 85.2%, the viability, T/C [23] was 91.4% and the viability, T/C [24] was 65.5%. The viability, T/C [25] was 94%, the viability, T/C [26] was 83.3% and the viability, T/C [27] was 88.4%. For the same compound, the viability, T/C [28] was 80.8%, the viability, T/C [29] was 75.4% and the viability, T/C [30] was 57.2%. For the same compound, the viability, T/C [31] was 77.4%, the viability, T/C [32] was 73.7% and the viability, T/C [33] was 75.8%. The viability, T/C [34] was 66.2%, the viability, T/C [35] was 72.6% and the viability, T/C [36] was 58.5%.
